Measurements from publication PMC7997579, “Synthetic Lethality in Pancreatic Cancer: Discovery of a New RAD51-BRCA2 Small Molecule Disruptor That Inhibits Homologous Recombination and Synergizes with Olaparib” (Journal of Medicinal Chemistry, 2020).
Like-named read-outs stand apart in the source and are kept apart here.

Key:
[1] = molecular target: T1, BRC4–RAD51 interaction (Homo sapiens, UniProt Q06609); assay: Competitive biochemical ELISA assay (biotinylated BRC4 peptide vs RAD51); type: binding
T1 construct: purchased Creative Biomart (RAD51); Life Technologies (BRC4 peptide)
T1 sequence (Q06609 1-339): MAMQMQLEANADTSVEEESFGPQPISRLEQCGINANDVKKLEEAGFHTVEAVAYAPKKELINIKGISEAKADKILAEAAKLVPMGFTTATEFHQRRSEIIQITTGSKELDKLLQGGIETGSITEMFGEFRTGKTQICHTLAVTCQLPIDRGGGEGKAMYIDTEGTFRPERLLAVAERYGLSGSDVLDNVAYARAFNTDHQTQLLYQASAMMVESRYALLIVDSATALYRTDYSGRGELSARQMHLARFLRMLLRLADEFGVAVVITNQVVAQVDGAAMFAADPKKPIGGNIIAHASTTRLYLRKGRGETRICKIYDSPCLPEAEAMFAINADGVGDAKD
Method: To investigate the mechanism of action of the new dihydroquinolone pyrazoline derivatives, different biological assays were performed. As a primary screening, the ability of compounds 5d–57d to inhibit RAD51-BRCA2 interaction was investigated with a competitive biochemical ELISA assay against the parent compound 4d (Table 1). This assay is effective in evaluating the ability of new molecules to compete with BRC4 to bind to RAD51.[30] […] 18d–21d, 23d, 25d, 30d, and 31d were active at micromolar range, all very similar to the initial hit. […] The replacement of the aromatic ring A in combination with the substitution of the pyrazoline nitrogen with either propionyl or acetyl chain yielded compounds 33d–51d. […] As expected for PPI disruptors, the SARs of the new series of dihydroquinolone pyrazoline were rather complex to rationalize, with many cliffs and spikes that were difficult to understand. […] Accordingly, 4d, 12d, 18d, 20d–23d, 30d, 31d, 33d–36d, 39d, 45d, and 49d were submitted to cell-based study (Table 2).
Competitive ELISA screening assay using biotinylated BRC4 peptide to disrupt the BRC4–RAD51 interaction was performed by modifying the method described by Rajendra et al.[33] BRC4-biotinylated peptide (N-term biotin-[…] from Life Technologies) was used to coat 384-well plates (Nunc). After washing with PBS containing 0.05% Tween-20 (PBST) and blocking with the solution BSA 1% /PBST, overnight hybridization with human RAD51 protein (NP_002866 Creative Biomart, NY) was performed. Test compounds were added in dose response from 0.01 to 100 μM in triplicate with constant DMSO 1%. Antibody raised against RAD51 (Millipore) and HRP-secondary antibody staining to develop the 3,3′,5,5′-tetramethylbenzidine signal (Sigma) quenched with 1 M HCl was used as the assay readout. Colorimetric measure was read on a Victor5 (PerkinElmer) plate reader. BRC4 and Rad51 were included in the assay as positive control. Results were analyzed by using GraphPad software.

[2] = system: BxPC3 cells; assay: Cell viability assay (CellTiter-Glo), association with olaparib; type: cell-based, human; settings: BxPC3; for olaparib association (increase of antiproliferative effect of olaparib): one or two doses in the range of the ELISA EC50, concentration not given
Text: (§1) Our working hypothesis is that compounds disrupting RAD51-BRCA2 interaction should affect HR repair and increase the efficacy of PARPi in treating breast, ovarian, and pancreatic cancer. For its clinical relevance, pancreatic adenocarcinoma was selected as our final model for cell-based experiments, and BxPC3 cells were selected for a straightforward comparison with the previously reported triazole derivatives.[30],[31] BxPC3 is derived from a human adenocarcinoma that expresses fully functional BRCA2.[38] As shown in Table 2 and according to the rationale of our hypothesis, our preliminary screening consisted of verifying the efficacy of compounds in inhibiting cell HR and/or in increasing the antiproliferative effect of olaparib. […] HR activity was assessed by evaluating the recombination rate between two transfected plasmids, using a commercially available assay. […] As for the emissucinic acid-containing compounds (4d, 12d, 18d, 20d–23d, 30d, 31d), one of the reasons for their lower potency in cells might be the general poor permeability, likely related to the ionizable acid moiety. […] We then characterized 35d in additional biophysical and cell-based experiments.
Cell viability was assessed with the CellTiter-Glo luminescent cell viability assay from Promega. For this experiment, 1 × 10^4 cells in 200 μL of culture medium were seeded into each well of a 96-multiwell white body plate and allowed to adhere overnight. After 72 h incubation in the presence of olaparib (10 μM) and the RAD51-BRCA2 disruptors alone or in combination, the plate was allowed to equilibrate at room temperature for 30 min and the CellTiter-Glo reactive was directly added to each well. The plate was kept on a shaker for 10 min to induce cell lysis, and its luminescence was measured with a Fluoroskan Ascent FL reader (Labsystems).

[3] = system: homologous recombination in BxPC3 cells; assay: Homologous recombination assay (two-plasmid recombination, real-time PCR); type: cell-based, human; settings: for HR inhibition (in words): BxPC3, one or two doses in the range of the ELISA EC50, NDD = not dose-dependent
Text: as §1
Homologous recombination (HR) was assessed by using a commercially available assay (Norgen). This assay is based on cell transfection with two plasmids that, upon cell entry, recombine. The efficiency of HR can be assessed by real-time PCR, using primer mixtures included in the assay kit. Different primer mixtures allow one to discriminate between the original plasmid backbones and their recombination product.
BxPC3 cells (2 × 10^5 per well) were seeded in a 24-well plate and allowed to adhere overnight. Co-transfection with the two plasmids was performed in Lipofectamine 2000 (Invitrogen) according to the manufacturer’s instructions. During transfection (5 h), cells were exposed to different doses of RAD51-BRCA2 disruptors, dissolved in RPMI in the presence of 0.6% DMSO. After washing with PBS, cells were harvested, and DNA was isolated using Illustra Tissue and Cell Genomic Prep Mini Spin kit (GE Healthcare). Sample concentration was measured using an ONDA Nano Genius photometer. The efficiency of HR was assessed by real-time PCR, using 25 ng of template, the primer mixtures included in the assay kit and following the protocol indicated by the manufacturer. Data analysis was based on the ΔΔCt method: [recombination product/backbone plasmids]^treated versus [recombination product/backbone plasmids]^control.

[4] = Table 2, compounds selected for cell-based study, read-out: EC50 ELISA
[5] = competition with BRC4 for RAD51, triplicate, ± standard deviation, NA = not active, racemic mixtures unless enantiomer named, read-out: EC50 (μM) on ELISA assay

**Q.** Which EC50 [1, 4] does the source give for `CC(=O)N1N=C(c2c(-c3ccccc3)c3cc(Cl)ccc3[nH]c2=O)CC1c1ccc(Cl)cc1` (stereo not drawn) [Compound 36d, 3-(1-Acetyl-5-(4-chlorophenyl)-4,5-dihydro-1H-pyrazol-3-yl)-6-chloro-4-phenylquinolin-2(1H)-one] here?
**A.** 10 ± 0.7 µM

**Q.** What about the EC50 [1, 5] of the same compound?
**A.** 10 ± 0.7 µM

**Q.** What about the “olaparib association (increase of antiproliferative effect of olaparib)” value [2] of the same compound?
**A.** olaparib association = not present

**Q.** And the inhibition at 10 µM ([3]; Homo sapiens, BXPC-3, 10 μM, BxPC3, 5 h during plasmid transfection)?
**A.** 24%

**Q.** Which results are given for `Cn1ccc2cc(C3CC(c4c(-c5ccccc5)c5cc(Cl)ccc5[nH]c4=O)=NN3C(=O)CCC(=O)O)ccc21` (stereo not drawn) [Compound 22d, 4-(3-(6-Chloro-2-oxo-4-phenyl-1,2-dihydroquinolin-3-yl)-5-(1-methyl-1H-indol-5-yl)-4,5-dihydro-1H-pyrazol-1-yl)-4-oxobutanoic Acid]?
**A.** EC50 [1, 4]: 2 ± 0.5 µM; EC50 [1, 5]: 2 ± 0.5 µM; olaparib association ([2]; at 5 μM): olaparib association = not present at 5 μM; HR inhibition (in words) [3]: HR inhibition = not present

**Q.** What does the source list for `O=C(O)CCC(=O)N1N=C(c2c(-c3ccccc3)c3cc(Cl)ccc3[nH]c2=O)CC1c1ccc(F)cc1` (stereo not drawn) [Compound 4d, 4-(3-(6-Chloro-2-oxo-4-phenyl-1,2-dihydroquinolin-3-yl)-5-(4-fluorophenyl)-4,5-dihydro-1H-pyrazol-1-yl)-4-oxobutanoic Acid]?
**A.** EC50 [1, 4]: 16 ± 4 µM; EC50 [1, 5]: 16 ± 4 µM; inhibition at 40 µM ([3]; Homo sapiens, BXPC-3, 40 μM, BxPC3, 5 h during plasmid transfection): 10%

**Q.** Which results are given for `CCCn1ncc2cc(C3CC(c4c(-c5ccccc5)c5cc(Cl)ccc5[nH]c4=O)=NN3C(C)=O)ccc21` (stereo not drawn) [Compound 49d, 3-(1-Acetyl-5-(1-propyl-1H-indazol-5-yl)-4,5-dihydro-1H-pyrazol-3-yl)-6-chloro-4-phenylquinolin-2(1H)-one]?
**A.** EC50 [1, 4]: 0.95 ± 0.05 µM; EC50 [1, 5]: 0.95 ± 0.05 µM; olaparib association (increase of antiproliferative effect of olaparib) [2]: olaparib association = not present; HR inhibition (in words) [3]: HR inhibition = not present

**Q.** For `O=C(O)CCC(=O)N1N=C(c2c(-c3ccccc3)c3cc(Cl)ccc3[nH]c2=O)CC1c1ccc(-c2ccc(Br)cc2)cc1` (stereo not drawn) [Compound 20d], which EC50 [1, 4] is on record?
**A.** 20 ± 2 µM

**Q.** And the EC50 [1, 5]?
**A.** 20 ± 2 µM

**Q.** What about the “olaparib association (increase of antiproliferative effect of olaparib)” value [2] of the same compound?
**A.** olaparib association = not present

**Q.** What does the source list for `CCn1ccc2cc(C3CC(c4c(-c5ccccc5)c5cc(Cl)ccc5[nH]c4=O)=NN3C(=O)CCC(=O)O)ccc21` (stereo not drawn) [Compound 23d, 4-(3-(6-Chloro-2-oxo-4-phenyl-1,2-dihydroquinolin-3-yl)-5-(1-ethyl-1H-indol-5-yl)-4,5-dihydro-1H-pyrazol-1-yl)-4-oxobutanoic Acid]?
**A.** EC50 [1, 4]: 10 ± 2 µM; EC50 [1, 5]: 10 ± 2 µM; olaparib association (increase of antiproliferative effect of olaparib) [2]: olaparib association = not present

**Q.** Which EC50 [1, 4] does the source give for `CC(=O)N1N=C(c2c(-c3ccccc3)c3cc(Cl)ccc3[nH]c2=O)CC1c1ccc2c(ccn2C)c1` (stereo not drawn) [Compound 45d, 3-(1-Acetyl-5-(1-methyl-1H-indol-5-yl)-4,5-dihydro-1H-pyrazol-3-yl)-6-chloro-4-phenylquinolin-2(1H)-one] here?
**A.** 18 ± 1 µM

**Q.** What about the EC50 [1, 5] of the same compound?
**A.** 18 ± 1 µM

**Q.** What about the “HR inhibition (in words)” value [3] of the same compound?
**A.** HR inhibition = not present

**Q.** For `CC(=O)N1N=C(c2c(-c3ccccc3)c3cc(Cl)ccc3[nH]c2=O)CC1c1ccc(C(C)(C)C)cc1` (stereo not drawn) [Compound 39d, 3-(1-Acetyl-5-(4-(tert-butyl)phenyl)-4,5-dihydro-1H-pyrazol-3-yl)-6-chloro-4-phenylquinolin-2(1H)-one], which EC50 [1, 4] is on record?
**A.** 15 ± 4 µM

**Q.** And the EC50 [1, 5]?
**A.** 15 ± 4 µM

**Q.** What about the “HR inhibition (in words)” value [3] of the same compound?
**A.** HR inhibition = NDD ^b

**Q.** Which EC50 [1, 4] does the source give for `O=C(O)CCC(=O)N1N=C(c2c(-c3ccccc3)c3cc(Cl)ccc3[nH]c2=O)CC1c1ccc(-c2ccc(F)cc2)cc1` (stereo not drawn) [Compound 18d, 4-(3-(6-Chloro-2-oxo-4-phenyl-1,2-dihydroquinolin-3-yl)-5-(4′-fluoro-[1,1′-biphenyl]-4-yl)-4,5-dihydro-1H-pyrazol-1-yl)-4-oxobutanoic Acid] here?
**A.** 13 ± 1 µM

**Q.** And the EC50 [1, 5]?
**A.** 13 ± 1 µM

**Q.** What about the “olaparib association (increase of antiproliferative effect of olaparib)” value [2] of the same compound?
**A.** olaparib association = not present
